# Measured values as given in patent US20070037817A1, “Acetylenic piperazines as metabotropic glutamate receptor antagonists” (AstraZeneca AB, priority 2005, published 2007).
# Target: T1, human mGluR5d (Homo sapiens, UniProt P41594)
# T1 construct: expressed in transfected cells; host or cells: GHEK (HEK cells expressing a glutamate transporter) for the IP3 assay
# Assay: Functional assessment of mGluR5 antagonism in cell lines expressing mGluR5d (FLIPR [Ca2+]i mobilization assay / IP3 turnover assay; assay behind the values not specified)
# Format: cell-based
# Conditions: assays described herein (FLIPR or IP3), cells expressing human mGluR5d
# Description: The pharmacological properties of the compounds of the invention can be analyzed using standard assays for functional activity. Examples of glutamate receptor assays are well known in the art as described in for example Aramori et al., Neuron 8:757 (1992), Tanabe et al., Neuron 8:169 (1992), Miller et al., J. Neuroscience 15: 6103 (1995), Balazs, et al., J Neurochemistry 69:151 (1997). The methodology described in these publications is incorporated herein by reference. Conveniently, the compounds of the invention can be studied by means of an assay that measures the mobilization of intracellular calcium, [Ca^2+]i in cells expressing mGluR5.
# Intracellular calcium mobilization was measured by detecting changes in fluorescence of cells loaded with the fluorescent indicator fluo-3. Fluorescent signals were measured using the FLIPR system (Molecular Devices). A two addition experiment was used that could detect compounds that either activate or antagonize the receptor.
# For FLIPR analysis, cells expressing human mGluR5d were seeded on collagen coated clear bottom 96-well plates with black sides and analysis of [Ca^2+]i mobilization was done 24 hours after seeding.
# FLIPR experiments were done using a laser setting of 0.800 W and a 0.4 second CCD camera shutter speed. Each FLIPR experiment was initiated with 160 μL of buffer present in each well of the cell plate. After each addition of the compound, the fluorescence signal was sampled 50 times at 1 second intervals followed by 3 samples at 5 second intervals. Responses were measured as the peak height of the response within the sample period.
# EC50 and IC50 determinations were made from data obtained from 8-point concentration response curves (CRC) performed in duplicate. Agonist CRC were generated by scaling all responses to the maximal response observed for the plate. Antagonist block of the agonist challenge was normalized to the average response of the agonist challenge in 14 control wells on the same plate.
# We have validated a secondary functional assay for mGluR5d based on Inositol Phosphate (IP3) turnover. IP3 accumulation is measured as an index of receptor mediated phospholipase C turnover. GHEK cells stably expressing the human mGluR5d receptors were incubated with [3H] myo-inositol overnight, washed three times in HEPES buffered saline and pre-incubated for 10 min. with 10 mM LiCl. Compounds (agonists) were added and incubated for 30 min. at 37° C. Antagonist activity was determined by pre-incubating test compounds for 15 min., then incubating in the presence of glutamate (80 μM) or DHPG (30 μM) for 30 min. Reactions were terminated by the addition of perchloric acid (5%). Samples were collected and neutralized, and inositol phosphates were separated using Gravity-Fed Ion-Exchange Columns.
# Functional assessment of mGluR5 Antagonism in Cell Lines Expressing mGluR5D
# The properties of the compounds of the invention can be analyzed using standard assays for pharmacological activity. Examples of glutamate receptor assays are well known in the art as described in for example Aramori et al., Neuron 8:757 (1992), Tanabe et al., Neuron 8:169 (1992), Miller et al., J. Neuroscience 15: 6103 (1995), Balazs, et al., J. Neurochemistry 69:151 (1997). The methodology described in these publications is incorporated herein by reference. Conveniently, the compounds of the invention can be studied by means of an assay (FLIPR) that measures the mobilization of intracellular calcium, [Ca^2+]i in cells expressing mGluR5 or another assay (IP3) that measures inositol phosphate turnover.
# Cells expressing human mGluR5d as described in WO97/05252 are seeded at a density of 100,000 cells per well on collagen coated clear bottom 96-well plates with black sides and experiments are done 24 h following seeding. All assays are done in a buffer containing 127 mM NaCl, 5 mM KCl, 2 mM MgCl2, 0.7 mM NaH2PO4, 2 mM CaCl2, 0.422 mg/ml NaHCO3, 2.4 mg/ml HEPES, 1.8 mg/ml glucose and 1 mg/ml BSA Fraction IV (pH 7.4). […]
# T1 sequence (P41594 21-942 isoform P41594-3 limits assumed): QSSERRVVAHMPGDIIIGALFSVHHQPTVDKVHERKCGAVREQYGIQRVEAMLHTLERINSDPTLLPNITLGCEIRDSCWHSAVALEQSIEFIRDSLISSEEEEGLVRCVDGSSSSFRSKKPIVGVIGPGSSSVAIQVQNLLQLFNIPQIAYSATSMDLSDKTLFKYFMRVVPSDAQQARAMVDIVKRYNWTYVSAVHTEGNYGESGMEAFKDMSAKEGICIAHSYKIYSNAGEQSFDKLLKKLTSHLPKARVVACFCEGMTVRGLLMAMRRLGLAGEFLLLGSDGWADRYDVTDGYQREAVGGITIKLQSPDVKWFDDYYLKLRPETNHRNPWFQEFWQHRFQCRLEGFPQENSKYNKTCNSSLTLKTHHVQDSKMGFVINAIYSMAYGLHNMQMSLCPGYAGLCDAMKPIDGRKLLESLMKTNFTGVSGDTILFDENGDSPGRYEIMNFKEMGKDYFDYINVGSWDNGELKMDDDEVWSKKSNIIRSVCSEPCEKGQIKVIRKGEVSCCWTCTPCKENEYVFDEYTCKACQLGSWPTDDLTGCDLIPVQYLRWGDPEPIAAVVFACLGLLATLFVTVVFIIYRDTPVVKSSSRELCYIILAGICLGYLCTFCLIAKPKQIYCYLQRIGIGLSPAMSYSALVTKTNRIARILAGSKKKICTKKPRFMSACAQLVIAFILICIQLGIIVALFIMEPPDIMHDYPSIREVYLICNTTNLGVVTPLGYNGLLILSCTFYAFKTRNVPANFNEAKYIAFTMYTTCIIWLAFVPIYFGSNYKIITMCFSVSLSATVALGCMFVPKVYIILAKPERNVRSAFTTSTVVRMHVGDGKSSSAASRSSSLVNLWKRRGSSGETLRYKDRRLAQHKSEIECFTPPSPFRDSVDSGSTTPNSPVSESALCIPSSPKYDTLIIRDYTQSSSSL
row,Compound,IC50 [µM]
1,"N#Cc1nccnc1N1CCN2[C@@H](CC[C@@H]2C#Cc2nccs2)C1 (racemic) [Example 14.26, (±)-3-[(6R,8aS)-6-(1,3-thiazol-2-yl-ethynyl)hexahydropyrrolo[1,2-a]pyrazin-2(1H)-yl]pyrazine-2-carbonitrile]",0.439
2,"CCOC(=O)N1CCN2[C@@H](CC[C@H]2C#Cc2cccc(Cl)c2)C1 [Example 12.3, ethyl (6S,8aS)-6-[(3-chloro-phenyl)ethynyl]hexahydropyrrolo[1,2-a]pyrazine-2(1H)-carboxylate]",0.187
3,"N#Cc1ccc(N2CCN3[C@@H](CC[C@H]3C#Cc3cccc(Cl)c3)C2)nc1 [Example 13.3, 6-[(6S,8aS)-6-[(3-chlorophenyl)ethynyl]hexahydropyrrolo[1,2-a]pyrazin-2(1H)-yl]nicotinonitrile]",0.486

# Compounds with a lower IC50, results first:
row,IC50 [µM],Compound
1,0.083,"N#Cc1cc(F)cnc1N1CCN2[C@@H](CCC[C@@H]2C#Cc2ccccn2)C1 (racemic) [Example 18.7, (±)-5-fluoro-2-[(6R,9aS)-6-(pyridin-2-ylethynyl)octahydro-2H-pyrido [1,2-a]pyrazin-2-yl]nicotinonitrile]"
2,0.023,"COC(=O)c1cccnc1N1CCN2[C@@H](CC[C@@H]2C#Cc2cccc(Cl)c2)C1 (racemic) [Example 13.12, (±)-methyl 2-[(6R,8aS)-6-[(3-chloro-phenyl)ethynyl]hexahydropyrrolo[1,2-a]pyrazin-2(1H)-yl]nicotinate]"
3,0.02,"N#Cc1cccc(C#C[C@H]2CCC[C@H]3CN(c4ncccc4C#N)CCN32)c1 (racemic) [Example 18.3, (±)-2-{(6R,9aS)-6-[(3-cyanophenyl)ethynyl]octahydro-2H-pyrido[1,2-a]pyrazin-2-yl}nicotinonitrile]"
